Measurements as given in patent US8974806B2, “Method for producing aqueous active substance compositions of active substances that are hardly soluble in water” (priority 2004, dated 2015).

Tests used:
[1] = system: Poria placenta FPRL 280; test: Agar block method (Bravery test, similar to EN 113) on Southern Yellow Pine wood samples; type: cell-based; details: P. placenta, 6 weeks, weight loss <3% = sufficient protection
Method: (§1) The activity threshold of the composition according to the invention from example 1 against wood-destroying Basidiomycetes was determined by the agar block method on wood samples from Pinus spp. (Southern Yellow Pine) of the dimensions 40×15×4 mm^3. The test method with wood samples reduced in size, known as bravery test, is very similar to EN 113 and serves to determine the prophylactic action of wood preservatives against wood-destroying fungi (see A. F. Bravery, Intern. Res. Group Wood Pres., Doc. No. IRG/WP/2113, 5S., Stockholm 1978). For comparison, a solution of epoxiconazole in acetone was tested under the same conditions.
(§2) The wood samples impregnated with the composition according to the invention were, with and without leaching stress, tested according to EN 84. The test was carried out using four different active compound concentrations and in each case 5 parallel samples per active compound concentration and test fungus. The test fungi used were Coniophora puteana BAM Ebw. 15, Poria placenta FPRL 280 and Coriolus versicolor CTB 863A. The destruction of the wood caused by the fungal attack was evaluated using the weight loss of the sample woods, which was determined after 6 weeks. If the weight loss is less than 3% by weight, based on the initial dry weight of the test sample, the protection of the wood achieved by the preservative at a certain active compound concentration is considered to be sufficient. The activity concentration threshold is stated in two concentrations.
(§3) The values determined for a solution of the active compound in acetone are shown for comparison.

[2] = system: Coniophora puteana BAM Ebw. 15; test: as above; type: cell-based; details: C. puteana, 6 weeks, weight loss <3% = sufficient protection
Method: as §1, §2, §3

[3] = system: wood-destroying soil termites (Reticulitermes santonensis); test: Forced termite test on treated Southern Yellow Pine wood samples (AWPA E1-97) after leaching stress (DIN EN 84); type: in vivo; details: after leaching (DIN EN 84); 4-week test; lower value = wood no longer sufficiently protected, higher value = minimum concentration for complete protection (score 10)
Method: Using water, the aqueous active compound composition according to the invention from example 5 was diluted to three different active compound concentrations. For comparison, α-cypermethrin was dissolved in acetone, and the solution was diluted to the corresponding active compound concentrations using further acetone.
To determine the activity thresholds of the composition according to the invention against wood-destroying soil termites (Reticulitermes santonensis), wood samples from Pinus spp. of the dimensions 25×25×6 mm^3 (Southern Yellow Pine), which met the American test standard AWPA E1-97 (see “Standard method for laboratory evaluation to determine resistance to subterranean termites”, American Wood-Preservers' Association, 2001) were tested in a forced test after leaching stress according to DIN EN 84: 1997-01 (see “accelerated aging of treated wood prior to biological testings”, European Committee for Standardization).
The destruction of the wood caused by the termite attack was, after a 4-week test period, evaluated by visual scoring of the sample woods in accordance with AWPA E1-97. In addition, the mortality rate among the termites was estimated. […]
For the aqueous active compound composition according to the invention, the threshold for α-cypermethrin after leaching was determined to be 9-21 g/m^3. […]

Structure (SMILES) | Activity thresholds, with leaching ([1]; with leaching (EN 84)) | Activity thresholds, without leaching ([1]; without leaching) [g/m^3] | Activity thresholds, with leaching ([2]; with leaching (EN 84)) | Activity thresholds, without leaching ([2]; without leaching) [g/m^3] | threshold for α-cypermethrin after leaching [3]
Fc1ccc([C@]2(Cn3cncn3)O[C@H]2c2ccccc2Cl)cc1 (racemic) [Solution of epoxiconazole, epoxiconazole] | 110-180 g/m^3 | <190 | 110-160 g/m^3 | <190 | 
CC1(C)C(C=C(Cl)Cl)C1C(=O)OC(C#N)c1cccc(Oc2ccccc2)c1 (stereo not drawn) [α-cypermethrin] |  |  |  |  | above 21 g/m^3
